Experimental data: patent publication US6608086B2, “Dihydropyridines and new uses thereof” (Synaptic Pharmaceutical Corporation, priority 1993, dated 2003)
Counter-ions that a name gives are not always drawn.

Experiments:
[1] = target: human prostatic tissue; test: In vitro human prostate model: block of phenylephrine-induced contraction of human prostatic tissue; type: cell-based
Excerpt: The protocol for these experiments is given below.
Functional Properties of α1 Antagonists in the Human Prostate
The efficacy of α1 adrenergic antagonists for the treatment of benign prostatic hyperplasia (BPH) is related to their ability to elicit relaxation of prostate smooth muscle. An index of this efficacy can be obtained by determining the potency of al antagonists to antagonize the contraction of human prostatic tissue induced by an α1 agonist “in vitro”. Furthermore, by comparing the potency of subtype selective α1 antagonists in binding assays using human α1 receptors with their potency to inhibit agonist-induced smooth muscle contraction, it is possible to determine which of the α1 adrenergic receptor subtypes is involved in the contraction of prostate smooth muscle.
Prostatic adenomas were obtained at the time of surgery from patients with symptomatic BPH. […] The baths were maintained at 37° C. and continuously oxygenated with 5% CO2 and 95% O2. Isometric tension was measured with a Grass Instrument FT03 force transducer interfaced with a computer. Tissue strips were contracted with varying concentrations of phenylephrine after incubating for 20 minutes in the absence and presence of at least three different concentrations of antagonist. Dose-response curves for phenylephrine were constructed, and the antagonist potency (pA2) was estimated by the dose-ratio method. The concentration of some antagonists in the tissue bath was assessed by measuring the displacement of [3H]prazosin by aliquots of the bath medium, using membrane preparations of the cloned human α1C receptor. This control was necessary to account for losses of antagonist due to adsorption to the tissue bath and/or metabolism during the time the antagonists were equilibrated with the prostate tissue.

[2] = test system: canine prostate; test: In vivo dog prostate model: inhibition of phenylephrine-induced increase in urethral pressure in anesthetized dogs
Experimental: Protocol for In Vivo Evaluation of Compounds in Canine Prostate
Adult male mongrel dogs more than one year of age were chosen for the model. After induction of general anesthesia using sodium pentobarbital (25 mg/Kg i.v.), the animals were intubated and allowed to breathe spontaneously. An arterial catheter was inserted via the femoral artery to monitor blood pressure and i.v. line was inserted into the leg for fluid and drug administration. A constant saline infusion was maintained at 40 to 50 mL/h. Next, a seven cm lower abdominal incision was made one cm lateral to the penis.
The bladder, prostate and a short segment of urethra were identified and isolated, without damage to the nerves or blood vessels. A cystotomy incision was made through which the pressure catheter was inserted and positioned in the prostatic urethra. The cystotomy was not closed, but the wound edges were sutured to stop bleeding. The tip of the catheter was positioned just distal to the prostate and secured in place with an O-silk tie around the urethra. A second holding suture at the bladder neck secured the catheter in place.
Fluid, either water or saline, was pumped by a Harvard infusion pump at 0.1 mL/min through a Gould pressure transducer into the catheter. The fluid exists at a port in the catheter which is in the prostatic urethra. Occlusion of the port, by contraction of the prostate, blocks the flow and a pressure wave is created. This pressure is transmitted back through the catheter to the transducer which is attached to a Gould recorder. Squeezing the prostate gland caused an increase in urethral pressure which verified the correct position in the urethra.
The compounds were tested as follows: A dose response curve was first generated for phenylephrine alone, in doses ranging from one μg/Kg to 50 μg/Kg. The absolute rise in urethral pressure was recorded for each dose and the next dose given when the urethral pressure returned to baseline. Phenylephrine dose response curves were generated in all animals tested. Increasing doses of compounds were then given, and the phenylephrine dose response curve repeated in the prepense of each dose of the compound. No animal received more than one compound; four animals were used to test each compound. To test for tachyphylaxis, four separate dogs were challenged with repeated phenylephrine doses for six hrs, the usual length of each experiment. From the dose-effect data, the inhibition constant (Ki) and the median-effect dose (ED50) were calculated. Both the Ki and ED50 values given are calculated by using microcomputer software and an IBM-PC.

| pKi ([1]; In Vitro Human Prostate Model, phenylephrine-induced contraction) | Structure (SMILES) | Ki ([2]; In Vivo Dog Prostate Model, phenylephrine-induced contraction, urethral pressure) | pA2 ([1]; block of phenylephrine-induced contraction of human prostate) | Urethral Pressure K i ([2]; inhibition of phenylephrine-induced increases in urethral pressure, anesthetized dogs) |
| --- | --- | --- | --- | --- |
| 8.07 ± 0.13 | COC(=O)C1=C(C)NC(C)=C(C(=O)NCCCN2CCC(c3ccccc3)CC2)C1c1ccc([N+](=O)[O-])cc1 (racemic) [(±)-45, (±)-1,4-Dihydro-3-methoxycarbonyl-2,6-dimethyl-4-(4-nitrophenyl)-5-{N-[3-(4-phenylpiperidin-1-yl)propyl]}carboxamidopyridine hydrochloride hemihydrate] | 12 nmol/kg |  |  |
|  | CNC(=O)C1=C(C)NC(C)=C(C(=O)NCCCN2CCC(c3ccccc3)(c3ccccc3)CC2)C1c1ccc([N+](=O)[O-])cc1 (stereo not shown) [Example 38, 1,4-Dihydro-2,6-dimethyl-5-(N-methyl)carboxamido-4-(4-nitrophenyl)-3-{N-[3-(4,4-diphenylpiperidin-1-yl)propyl]}carboxamidopyridine] |  | 8.98 ± 0.06 | 8 ± 1.5 nmol/kg |
